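Five compound concentrations were applied to cells in 96-well plates for 48 hours; endpoints were derived by simple linear interpolation of the resulting dose-response curve. At the GI50, growth is halved.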 Calls of active or inactive are those of the source. Cut-off read from the data, not from the text of the source: active = GI50 up to about 1.1 µM and inactive = higher.
Key:
Experiment in all cases: NCI tumour cell line growth inhibition, 48 h
[1] = test system: LOX IMVI
[2] = test system: U-251
[3] = test system: SN12C
[4] = test system: RXF 393
[5] = test system: OVCAR-3
[6] = test system: CCRF-CEM
[7] = test system: SF-268
[8] = test system: K562
[9] = test system: M14
[10] = test system: OVCAR-8
[11] = test system: SW-620
[12] = test system: RPMI-8226
[13] = test system: IGROV-1
[14] = test system: SF-539
[15] = test system: A498
[16] = test system: SK-MEL-2
[17] = test system: SK-OV-3
[18] = test system: OVCAR-4

Measured: GI50

CN(C)c1ccc(-c2cc(O)c3ccccc3n2)cc1
inactive: [1] > 100 µM | [2] > 100 µM | [3] > 100 µM | [4] > 100 µM | [5] > 100 µM | [6] > 100 µM | [7] > 100 µM | [8] > 100 µM | [9] > 100 µM | [10] > 100 µM | [11] > 100 µM | [12] > 100 µM | [13] > 100 µM | [14] > 100 µM

CCNC(=O)N(CC)CN(CC)C(=O)NCC
inactive: [1] > 100 µM | [15] > 100 µM | [3] > 100 µM | [16] > 100 µM | [5] > 100 µM | [6] > 100 µM | [17] > 100 µM | [7] > 100 µM | [8] > 100 µM | [9] > 100 µM | [10] > 100 µM | [11] > 100 µM | [12] > 100 µM | [14] > 100 µM

CC1=C(C(=O)NNS(=O)(=O)c2ccc(C)cc2)CC(C(=O)NNS(=O)(=O)c2ccc(C)cc2)=C(C)N1
inactive: [1] > 100 µM | [18] > 100 µM | [2] > 100 µM | [3] > 100 µM | [16] > 100 µM | [4] 92.7 µM | [5] > 100 µM | [6] > 10 µM | [17] > 100 µM | [7] > 100 µM | [8] 56.9 µM | [9] > 100 µM | [10] > 100 µM | [11] > 100 µM | [12] 36.2 µM | [13] > 100 µM | [14] > 100 µM

C/C=C1\CN2CCc3c([nH]c4ccccc34)C2CC1CCO (stereo unspecified)
inactive: [1] > 100 µM | [18] > 100 µM | [2] > 100 µM | [15] > 100 µM | [3] > 100 µM | [16] > 100 µM | [4] > 100 µM | [5] > 100 µM | [6] > 100 µM | [17] > 100 µM | [7] > 100 µM | [8] > 100 µM | [9] > 100 µM | [10] > 100 µM | [11] > 100 µM | [13] > 100 µM | [14] > 100 µM

Cc1ccc(NC(=O)C(=O)C2C(=O)N(c3ccccc3)N=C2N)cc1C (stereo unspecified)
inactive: [18] > 100 µM | [2] > 100 µM | [15] > 100 µM | [3] > 100 µM | [5] > 100 µM | [6] > 100 µM | [17] > 100 µM | [7] > 100 µM | [8] > 100 µM | [9] > 100 µM | [10] > 100 µM | [11] > 100 µM | [12] > 100 µM | [13] > 100 µM | [14] > 100 µM

COc1ccc(C2C3=C(COC3=O)Oc3cc4c(cc32)OCO4)cc1 (stereo unspecified)
inactive: [1] 27.4 µM | [18] 27.3 µM | [2] 23.9 µM | [3] 27.9 µM | [16] 47.1 µM | [4] 19.1 µM | [5] 7.18 µM | [6] 6.46 µM | [17] > 100 µM | [8] 3.85 µM | [9] 17.7 µM | [10] 36.2 µM | [11] 6.21 µM | [12] 12.7 µM | [13] 32.2 µM | [14] 19.4 µM

Cc1oc2c(C)c(O)c3c(c2c1C1(C)OCCO1)C(=O)C=C(Cl)C3=O
inactive: [1] > 100 µM | [18] > 100 µM | [2] > 100 µM | [15] > 100 µM | [3] > 100 µM | [16] > 100 µM | [4] > 100 µM | [5] > 100 µM | [6] > 100 µM | [7] > 100 µM | [8] > 100 µM | [9] > 100 µM | [10] > 100 µM | [11] > 100 µM | [12] > 100 µM | [13] > 100 µM | [14] > 100 µM

O=c1c(Cc2ccccc2)c(O)cc2n1CCC2
inactive: [1] > 100 µM | [18] > 100 µM | [2] > 100 µM | [15] > 100 µM | [3] > 100 µM | [4] > 100 µM | [5] > 100 µM | [6] 41.5 µM | [17] > 100 µM | [7] > 100 µM | [8] > 100 µM | [9] > 100 µM | [10] > 100 µM | [11] > 100 µM | [12] > 100 µM | [13] > 100 µM | [14] > 100 µM

O=C(c1ccccc1)c1c(C(=O)c2ccccc2)c(-c2ccccc2)c2c(-c3ccccc3)sc(-c3ccccc3)c2c1-c1ccccc1
inactive: [1] > 100 µM | [18] > 100 µM | [2] > 100 µM | [15] > 100 µM | [3] > 100 µM | [4] > 100 µM | [5] > 100 µM | [6] > 100 µM | [17] > 100 µM | [7] > 100 µM | [8] > 100 µM | [9] > 100 µM | [10] > 100 µM | [11] > 100 µM | [12] > 100 µM | [13] > 100 µM | [14] > 100 µM

O=CN/C=C\c1cc(O)ccc1O
inactive: [1] 7.23 µM | [18] 12.7 µM | [2] 32 µM | [15] 74.8 µM | [3] 14 µM | [16] > 48.9 µM | [5] 12.2 µM | [6] 5.11 µM | [17] > 100 µM | [7] 22.5 µM | [8] 13.3 µM | [9] 13.5 µM | [10] 15.6 µM | [11] 12.6 µM | [12] 13.6 µM | [13] > 40.1 µM | [14] 10.7 µM

Cc1cccc(NC2=NC(=O)C(CC(=O)Nc3ccccc3Cl)S2)c1 (stereo unspecified)
inactive: [1] > 100 µM | [18] > 100 µM | [15] > 100 µM | [3] > 100 µM | [16] > 100 µM | [4] > 100 µM | [5] > 100 µM | [6] > 100 µM | [7] > 100 µM | [8] > 100 µM | [9] > 100 µM | [10] > 100 µM | [11] > 100 µM | [12] > 100 µM | [13] > 100 µM | [14] > 100 µM

COc1ccc(N2C(=O)C3c4[nH]c5ccccc5c4C4CC(C)CC(C)C4C3C2=O)cc1 (stereo unspecified)
inactive: [18] > 100 µM | [2] > 100 µM | [15] > 100 µM | [3] > 100 µM | [4] > 100 µM | [6] > 100 µM | [17] > 100 µM | [7] > 100 µM | [8] > 100 µM | [9] > 100 µM | [10] > 100 µM | [11] > 100 µM | [12] > 100 µM | [13] > 100 µM | [14] > 100 µM

Cc1ccccc1NC(=O)CC(=O)NNCC(=O)Nc1nnc(-c2ccccc2)s1
inactive: [1] 51.3 µM | [18] 18 µM | [2] 50 µM | [15] 30.9 µM | [3] > 100 µM | [16] > 100 µM | [5] 31.4 µM | [7] > 100 µM | [8] 37.8 µM | [9] 57.1 µM | [10] 54.2 µM | [11] 87.7 µM | [12] 25 µM | [13] > 100 µM | [14] > 100 µM

O=S1(=O)C[C@H](O)[C@H](O)CS1
inactive: [1] > 100 µM | [18] > 100 µM | [2] > 100 µM | [15] > 100 µM | [3] > 100 µM | [4] > 100 µM | [5] > 100 µM | [17] > 100 µM | [7] > 100 µM | [8] > 100 µM | [9] > 100 µM | [10] > 100 µM | [11] > 100 µM | [12] > 100 µM | [13] > 100 µM | [14] > 100 µM

COc1ccccc1/C=C\c1cc(OC)c(OC)c(OC)c1
inactive: [1] 9.59 µM | [18] 25.8 µM | [2] 6.03 µM | [15] 7.64 µM | [3] 29.3 µM | [4] 11 µM | [5] 10.2 µM | [6] 16.7 µM | [8] 4.06 µM | [9] 5.85 µM | [10] 24.5 µM | [11] 3.85 µM | [12] 5.01 µM | [13] 6.41 µM | [14] 6.4 µM

Cn1cnc([N+](=O)[O-])c1Sc1ccccn1
inactive: [1] > 100 µM | [18] > 100 µM | [2] > 100 µM | [15] > 100 µM | [3] > 100 µM | [16] 74.6 µM | [5] > 100 µM | [6] 48.9 µM | [17] > 100 µM | [7] > 100 µM | [8] > 100 µM | [9] > 100 µM | [10] > 100 µM | [11] > 100 µM | [12] > 100 µM | [13] > 100 µM | [14] > 100 µM

BrC(Br)([P+](c1ccccc1)(c1ccccc1)c1ccccc1)[P+](c1ccccc1)(c1ccccc1)c1ccccc1
inactive: [1] 13.2 µM | [18] 12.1 µM | [2] 20.3 µM | [15] 22.4 µM | [3] 22.7 µM | [16] 16.5 µM | [4] 11.1 µM | [5] 11.9 µM | [17] 38.5 µM | [7] 24 µM | [9] 18.5 µM | [10] 13.1 µM | [11] 12.2 µM | [12] 6.87 µM | [13] 18.1 µM | [14] 13.6 µM
